Results published in the CheMixHub viscosity set.
Values joined by “and” are separate entries in the source; they are usually repeats but may differ in a detail not shown here. Equal entries are not always repeated.

Assay: xn = mol fraction of the nth substance listed

CCCC[N+](CCCC)(CCCC)CCCC.[Br-] + NCCO
101 kPa, x1 = 0.143
Details	viscosity [mPa·s]
298.15 K	53.49
303.15 K	40.7
308.15 K	31.66
313.15 K	25.12
318.15 K	20.28
323.15 K	16.63

OC[C@H]1O[C@@](CO)(O[C@H]2O[C@H](CO)[C@@H](O)[C@H](O)[C@H]2O)[C@@H](O)[C@@H]1O + O
Details	viscosity
293.15 K, 101 kPa, x1 = 0.00581	1.26 mPa·s and 1.27 mPa·s
293.15 K, 101 kPa, x1 = 0.013	1.96 mPa·s
293.15 K, 101 kPa, x1 = 0.0221	3.21 mPa·s
293.15 K, 101 kPa, x1 = 0.0339	6.2 mPa·s
293.15 K, 101 kPa, x1 = 0.05	15.04 mPa·s and 15.1 mPa·s
293.15 K, 101 kPa, x1 = 0.0732	56.76 mPa·s and 76.48 mPa·s
293.16 K, 101.3 kPa, x1 = 0.013	1.96 mPa·s
293.16 K, 101.3 kPa, x1 = 0.073	56.5 mPa·s
298.15 K, 100 kPa, x1 = 0.0009	1.035 mPa·s
298.15 K, 100 kPa, x1 = 0.001818	0.98 mPa·s
298.15 K, 100 kPa, x1 = 0.004482	1.104 mPa·s
298.15 K, 100 kPa, x1 = 0.007149	1.222 mPa·s
298.15 K, 100 kPa, x1 = 0.008888	1.295 mPa·s
298.15 K, 101 kPa, x1 = 0.003	1.03 mPa·s
298.15 K, 101 kPa, x1 = 0.0058	1.194 mPa·s
298.15 K, 101 kPa, x1 = 0.00581	1.13 mPa·s
298.15 K, 101 kPa, x1 = 0.013	1.715 mPa·s and 1.7 mPa·s
298.15 K, 101 kPa, x1 = 0.017	2.15 mPa·s
298.15 K, 101 kPa, x1 = 0.0221	2.65 mPa·s
298.15 K, 101 kPa, x1 = 0.0339	5.17 mPa·s
298.15 K, 101 kPa, x1 = 0.05	11.49 mPa·s and 11.8 mPa·s
298.15 K, 101 kPa, x1 = 0.0732	43.88 mPa·s and 47.98 mPa·s
303.15 K, 100 kPa, x1 = 0.0009	0.944 mPa·s
303.16 K, 101.3 kPa, x1 = 0.013	1.504 mPa·s
303.16 K, 101.3 kPa, x1 = 0.073	33.78 mPa·s
308.15 K, 100 kPa, x1 = 0.0009	0.8578 mPa·s
308.15 K, 100 kPa, x1 = 0.001818	0.789 mPa·s
308.15 K, 100 kPa, x1 = 0.002681	0.822 mPa·s
308.15 K, 100 kPa, x1 = 0.003594	0.855 mPa·s
308.15 K, 100 kPa, x1 = 0.004482	0.886 mPa·s
308.15 K, 100 kPa, x1 = 0.00626	0.949 mPa·s
308.15 K, 100 kPa, x1 = 0.007149	0.978 mPa·s
308.15 K, 100 kPa, x1 = 0.008888	1.035 mPa·s
308.15 K, 101 kPa, x1 = 0.001814	0.712 mPa·s
308.15 K, 101 kPa, x1 = 0.003	0.822 mPa·s
308.15 K, 101 kPa, x1 = 0.003622	0.777 mPa·s
308.15 K, 101 kPa, x1 = 0.0058	0.949 mPa·s
308.15 K, 101 kPa, x1 = 0.00581	0.89 mPa·s and 0.92 mPa·s
308.15 K, 101 kPa, x1 = 0.007213	0.915 mPa·s
308.15 K, 101 kPa, x1 = 0.0092	1.117 mPa·s
308.15 K, 101 kPa, x1 = 0.013	1.337 mPa·s and 1.35 mPa·s
308.15 K, 101 kPa, x1 = 0.01428	1.291 mPa·s
308.15 K, 101 kPa, x1 = 0.017	1.654 mPa·s
308.15 K, 101 kPa, x1 = 0.01781	1.535 mPa·s
308.15 K, 101 kPa, x1 = 0.0224	2.075 mPa·s
308.15 K, 101 kPa, x1 = 0.0279	2.588 mPa·s
308.15 K, 101 kPa, x1 = 0.0339	3.8 mPa·s
308.15 K, 101 kPa, x1 = 0.0354	3.655 mPa·s
308.15 K, 101 kPa, x1 = 0.05	8.69 mPa·s
308.15 K, 101 kPa, x1 = 0.05167	6.396 mPa·s
308.15 K, 101 kPa, x1 = 0.0732	26.67 mPa·s and 27.9 mPa·s
313.15 K, 100 kPa, x1 = 0.0009	0.7866 mPa·s
313.15 K, 101 kPa, x1 = 0.00581	0.82 mPa·s
313.15 K, 101 kPa, x1 = 0.013	1.2 mPa·s
313.15 K, 101 kPa, x1 = 0.0339	3.25 mPa·s
313.15 K, 101 kPa, x1 = 0.05	6.35 mPa·s and 6.35 mPa·s
313.15 K, 101 kPa, x1 = 0.0732	21.32 mPa·s and 25.87 mPa·s
313.16 K, 101.3 kPa, x1 = 0.013	1.193 mPa·s
313.16 K, 101.3 kPa, x1 = 0.073	21.28 mPa·s
318.15 K, 100 kPa, x1 = 0.001818	0.657 mPa·s
318.15 K, 100 kPa, x1 = 0.002681	0.683 mPa·s
318.15 K, 100 kPa, x1 = 0.003594	0.709 mPa·s
318.15 K, 100 kPa, x1 = 0.004482	0.733 mPa·s
318.15 K, 100 kPa, x1 = 0.00626	0.783 mPa·s
318.15 K, 100 kPa, x1 = 0.007149	0.805 mPa·s
318.15 K, 100 kPa, x1 = 0.008888	0.86 mPa·s
318.15 K, 101 kPa, x1 = 0.00581	0.74 mPa·s
318.15 K, 101 kPa, x1 = 0.00722	0.771 mPa·s
318.15 K, 101 kPa, x1 = 0.01077	0.9 mPa·s
318.15 K, 101 kPa, x1 = 0.013	1.06 mPa·s
318.15 K, 101 kPa, x1 = 0.01432	0.984 mPa·s
318.15 K, 101 kPa, x1 = 0.01785	1.164 mPa·s
318.15 K, 101 kPa, x1 = 0.02128	1.431 mPa·s
318.15 K, 101 kPa, x1 = 0.0221	1.51 mPa·s
318.15 K, 101 kPa, x1 = 0.0339	2.84 mPa·s
318.15 K, 101 kPa, x1 = 0.03502	2.618 mPa·s
318.15 K, 101 kPa, x1 = 0.05	5.04 mPa·s and 5.1 mPa·s
318.15 K, 101 kPa, x1 = 0.0732	17.2 mPa·s and 17.98 mPa·s
323.15 K, 101 kPa, x1 = 0.00581	0.66 mPa·s
323.15 K, 101 kPa, x1 = 0.013	0.98 mPa·s
323.15 K, 101 kPa, x1 = 0.0221	1.36 mPa·s
323.15 K, 101 kPa, x1 = 0.0339	2.52 mPa·s
323.15 K, 101 kPa, x1 = 0.05	4.78 mPa·s and 4.82 mPa·s
323.15 K, 101 kPa, x1 = 0.0732	14.07 mPa·s and 16.78 mPa·s

Oc1cccc(O)c1O + CCCC[N+](CCCC)(CCCC)CCCC.[Br-]
101.3 kPa, x2 = 0.5
Details	viscosity [mPa·s]
293.15 K	30000
298.15 K	18500
303.15 K	11000
308.15 K	6000
313.15 K	3250
318.15 K	1850
323.15 K	1200
